{"source": "paper PMC6225212", "about": "“Synthesis and Pharmacological Evaluation of Novel Silodosin-Based Arylsulfonamide Derivatives as α1A/α1D-Adrenergic Receptor Antagonist with Potential Uroselective Profile” (Molecules : A Journal of Synthetic Chemistry and Natural …, 2018)", "key": {"α1-ARs": {"test_system": "α1-ARs", "experiment": "Radioligand binding, displacement of [3H]-Prazosin from α1-ARs on rat cerebral cortex", "settings": "for Sα2/α1 (ratio of affinity for α2- and α1-ARs): Ki α2 / Ki α1; for Ki: [3H]-Prazosin, rat cerebral cortex, ± SEM, two independent experiments", "method": "(§1) The pharmacological profile of the new compounds was assessed in radioligand-binding assays as the ability to displace [^3H]-Prazosin or [^3H]-Clonidine from α1- and α2-ARs, respectively, on rat cerebral cortex. The inhibition constants (Ki) were calculated from the Cheng-Prusoff equation [24].\n(§2) The affinity of the obtained compounds was evaluated by radioligand-binding assays (the ability to displace [^3H]-Prazosin and [^3H]-Clonidine from α1- and α2-ARs, respectively) on rat cerebral cortex. The brains are homogenized in 20 volumes of an ice-cold 50 mM Tris-HCl buffer (pH 7.6) and is centrifuged (MPW Med. Instruments, Warsaw, Poland) at 20,000 g for 20 min (0–4 °C). The cell pellet is resuspended in the Tris-HCl buffer and centrifuged again. Radioligand-binding assays are performed in plates (MultiScreen/Millipore, Burlington, MA, USA). The final incubation mixture (final volume 300 µL) consisted of 240 µL of the membrane suspension, 30 µL of [^3H]-Prazosin (0.2 nM) or [^3H]-Clonidine (2 nM) solution, and 30 µL of the buffer containing seven to eight concentrations (10^−11 to 10^−4 M) of the tested compounds. For measuring the unspecific binding, phentolamine, 10 µM (in the case of [^3H]-Prazosin) and clonidine, and 10 µM (in the case of [^3H]-Clonidine), were applied. The incubation was terminated by rapid filtration over glass fiber filters (Whatman GF/C, Sigma-Aldrich) using a vacuum manifold (Millipore). The filters were then washed twice with the assay buffer and placed in scintillation vials with a liquid-scintillation cocktail. Radioactivity was measured in a WALLAC 1409 DSA liquid-scintillation counter (BioSurplus, San Diego, CA, USA). All the assays were made in duplicate."}, "α2-ARs": {"molecular_target": "α2-ARs", "experiment": "Radioligand binding, displacement of [3H]-Clonidine from α2-ARs on rat cerebral cortex", "settings": "± SEM, two independent experiments", "method": "as §1, §2"}, "human 5-HT1A": {"molecular_target": "T1, human 5-HT1A (Homo sapiens, UniProt P08908)", "T1 construct": "expressed in transfected cells; host or cells: CHO-K1", "T1 sequence (P08908 1-422)": "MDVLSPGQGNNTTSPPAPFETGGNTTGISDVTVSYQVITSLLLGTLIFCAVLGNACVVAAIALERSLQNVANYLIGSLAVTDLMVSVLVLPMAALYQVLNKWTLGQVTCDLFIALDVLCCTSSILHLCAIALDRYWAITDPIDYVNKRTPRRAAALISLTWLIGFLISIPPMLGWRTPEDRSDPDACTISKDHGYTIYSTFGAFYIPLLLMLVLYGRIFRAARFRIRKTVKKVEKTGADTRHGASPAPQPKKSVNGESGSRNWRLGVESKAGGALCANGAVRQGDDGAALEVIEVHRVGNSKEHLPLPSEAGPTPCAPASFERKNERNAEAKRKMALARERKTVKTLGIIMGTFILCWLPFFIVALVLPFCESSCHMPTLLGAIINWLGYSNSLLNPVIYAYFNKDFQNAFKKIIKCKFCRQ", "experiment": "Radioligand binding [3H]-8-OH-DPAT, membranes from CHO-K1 cells", "settings": "± SEM, two independent experiments", "method": "(§3) Experiments were performed using membranes from CHO-K1 cells stably transfected with the human 5-HT1A and 5-HT7Rs according to the methods previously described.\n(§4) Binding experiments were conducted in 96-well microplates in a total volume of 250 μL of appropriate buffers. The composition of the assay buffers was as follows: 50 mM Tris-HCl, 0.1 mM EDTA, 10 mM MgCl2. The reaction mix included 50 μL solution of test compound, 50 μL of radioligand, and 150 μL of diluted membranes. All assays were incubated for 1 h (5-HT1ARs) or 2 h (5-HT7Rs) at 37 °C. Radioactivity was counted in MicroBeta2 scintillation counter (PerkinElmer, Waltham, MA, USA). Nonspecific binding is defined with 10 µM of 5-HT and 10 µM of methiothepine in 5-HT1AR and 5-HT7R binding experiments, respectively. Each compound was tested in screening assay at two final concentrations of 10 µM and 1 µM."}, "human 5-HT7Rs": {"molecular_target": "T2, human 5-HT7Rs (Homo sapiens, UniProt P34969)", "T2 construct": "expressed in transfected cells; host or cells: CHO-K1", "T2 sequence (P34969 whole entry)": "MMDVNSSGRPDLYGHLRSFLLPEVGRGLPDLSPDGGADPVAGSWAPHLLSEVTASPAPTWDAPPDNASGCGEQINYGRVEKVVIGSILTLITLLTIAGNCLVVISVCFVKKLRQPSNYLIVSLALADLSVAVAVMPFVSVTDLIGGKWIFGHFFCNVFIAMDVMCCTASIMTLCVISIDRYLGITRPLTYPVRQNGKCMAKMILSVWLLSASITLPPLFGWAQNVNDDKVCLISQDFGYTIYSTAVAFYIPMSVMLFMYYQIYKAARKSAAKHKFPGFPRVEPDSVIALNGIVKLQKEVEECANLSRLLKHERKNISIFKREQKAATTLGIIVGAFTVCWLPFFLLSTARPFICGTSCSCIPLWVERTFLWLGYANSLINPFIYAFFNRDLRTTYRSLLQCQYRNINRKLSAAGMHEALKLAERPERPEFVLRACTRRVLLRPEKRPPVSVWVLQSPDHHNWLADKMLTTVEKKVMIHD", "experiment": "Radioligand binding screening [3H]-LSD, membranes from CHO-K1 cells", "settings": "for inhibition at 1 µM: 10^−6 M, read-out: 5-HT7 %inh @ 10^−6 M; for inhibition at 0.1 µM: 10^−7 M, read-out: 5-HT7 %inh @ 10^−7 M", "method": "as §3\nas §4, with “Each compound was tested in screening assay at two final concentrations of 10 µM and 1 µM.” left out"}, "histaminic H1R": {"molecular_target": "T3, histaminic H1R (Homo sapiens, UniProt P35367)", "T3 construct": "Eurofins (Celle-Lévescault, France)", "T3 sequence (P35367 whole entry)": "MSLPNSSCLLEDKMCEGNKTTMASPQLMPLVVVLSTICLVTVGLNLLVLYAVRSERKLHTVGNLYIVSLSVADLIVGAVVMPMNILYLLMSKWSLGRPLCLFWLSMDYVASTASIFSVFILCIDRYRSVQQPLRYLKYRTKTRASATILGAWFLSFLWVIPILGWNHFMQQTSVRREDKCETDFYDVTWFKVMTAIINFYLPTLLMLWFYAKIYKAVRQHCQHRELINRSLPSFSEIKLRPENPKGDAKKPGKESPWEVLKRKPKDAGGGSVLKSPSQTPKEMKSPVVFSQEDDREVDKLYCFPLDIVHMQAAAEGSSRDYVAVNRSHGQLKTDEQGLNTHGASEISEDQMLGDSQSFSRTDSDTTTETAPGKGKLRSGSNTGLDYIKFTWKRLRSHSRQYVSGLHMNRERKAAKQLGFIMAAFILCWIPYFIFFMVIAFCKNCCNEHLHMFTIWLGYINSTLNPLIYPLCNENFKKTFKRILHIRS", "experiment": "Off-target panel at Eurofins Cerep, H1", "assay_type": "binding", "settings": "read-out: inhibition at histamine H1", "method": "(§5) Finally, the percentage of inhibition for selected compounds 9 and 10 for off-target histaminic H1R, muscarinic M1R, adrenergic β1-AR and potassium ion channel hERG were assessed at Eurofins (Celle-Lévescault, France) according to the procedure online at www.eurofins.com."}, "muscarinic M1R": {"molecular_target": "T4, muscarinic M1R (Homo sapiens, UniProt P11229)", "T4 construct": "Eurofins (Celle-Lévescault, France)", "T4 sequence (P11229 1-460)": "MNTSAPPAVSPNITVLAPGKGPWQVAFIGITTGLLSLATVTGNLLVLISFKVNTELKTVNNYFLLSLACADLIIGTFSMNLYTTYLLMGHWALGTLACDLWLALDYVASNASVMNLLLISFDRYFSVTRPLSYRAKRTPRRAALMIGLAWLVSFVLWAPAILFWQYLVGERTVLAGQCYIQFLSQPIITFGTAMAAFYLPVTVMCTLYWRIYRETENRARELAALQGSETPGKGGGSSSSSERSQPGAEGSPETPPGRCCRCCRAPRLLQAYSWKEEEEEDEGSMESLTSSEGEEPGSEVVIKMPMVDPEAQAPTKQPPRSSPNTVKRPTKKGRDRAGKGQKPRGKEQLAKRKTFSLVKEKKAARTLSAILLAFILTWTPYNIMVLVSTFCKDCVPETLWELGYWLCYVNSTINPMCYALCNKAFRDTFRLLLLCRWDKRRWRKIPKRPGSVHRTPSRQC", "experiment": "Off-target panel at Eurofins Cerep, M1", "assay_type": "binding", "method": "as §5"}}, "data": [{"smiles": "O=S(=O)(NCC1CCN(CCOc2ccccc2OCC(F)(F)F)CC1)c1cc(Cl)ccc1F", "note": "[Compound 10, 5-Chloro-2-fluoro-N-[(1-{2-[(2,2,2-trifluoroethoxy)phenoxy]ethyl}piperidin-4-yl)methyl]benzenesulfonamide]", "values": [{"measurement": "Sα2/α1 (ratio of affinity for α2- and α1-ARs)", "setting": "α1-ARs", "result": 23}, {"measurement": "Ki", "setting": "α1-ARs", "result": "26 ± 1", "unit": "nM"}, {"measurement": "Ki", "setting": "α2-ARs", "result": "579 ± 20", "unit": "nM"}, {"measurement": "Ki", "setting": "human 5-HT1A", "result": "46 ± 0.6", "unit": "nM"}, {"measurement": "inhibition at 1 µM", "setting": "human 5-HT7Rs", "result": 94, "unit": "%"}, {"measurement": "inhibition at 0.1 µM", "setting": "human 5-HT7Rs", "result": 61, "unit": "%"}, {"measurement": "inhibition at 1 µM", "setting": "histaminic H1R", "result": "< 50", "unit": "%"}, {"measurement": "inhibition at 1 µM", "setting": "muscarinic M1R", "result": "< 50", "unit": "%"}]}, {"smiles": "O=S(=O)(NCC1CCN(CCOc2ccccc2OCC(F)(F)F)CC1)c1cccc(Cl)c1F", "note": "[Compound 9, 3-Chloro-2-fluoro-N-[(1-{2-[(2,2,2-trifluoroethoxy)phenoxy]ethyl}piperidin-4-yl)methyl]benzenesulfonamide]", "values": [{"measurement": "Sα2/α1 (ratio of affinity for α2- and α1-ARs)", "setting": "α1-ARs", "result": 17}, {"measurement": "Ki", "setting": "α1-ARs", "result": "50 ± 2", "unit": "nM"}, {"measurement": "Ki", "setting": "α2-ARs", "result": "858 ± 69", "unit": "nM"}, {"measurement": "Ki", "setting": "human 5-HT1A", "result": "70 ± 3.5", "unit": "nM"}, {"measurement": "inhibition at 1 µM", "setting": "human 5-HT7Rs", "result": 93, "unit": "%"}, {"measurement": "inhibition at 0.1 µM", "setting": "human 5-HT7Rs", "result": 57, "unit": "%"}, {"measurement": "inhibition at 1 µM", "setting": "histaminic H1R", "result": "< 50", "unit": "%"}, {"measurement": "inhibition at 1 µM", "setting": "muscarinic M1R", "result": "< 50", "unit": "%"}]}]}
